Laboratory results as given in PubChem BioAssay (NCI).
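The compound was tested at five concentrations on cells cultured in 96-well plates, with a 48-hour exposure period. TGI marks complete inhibition of growth.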

Legend:
Assay in all cases: NCI-60 cell line screen, 48 h
786-0 renal = test system: 786-0 renal
A498 renal = test system: A498 renal
A549 NSCLC = test system: A549 NSCLC
ACHN renal = test system: ACHN renal
BT-549 breast = test system: BT-549 breast
CAKI-1 renal = test system: CAKI-1 renal
CCRF-CEM leukemia = test system: CCRF-CEM leukemia
COLO 205 colon = test system: COLO 205 colon
DU-145 prostate = test system: DU-145 prostate
EKVX NSCLC = test system: EKVX NSCLC
HCC-2998 colon = test system: HCC-2998 colon
HCT-116 colon = test system: HCT-116 colon
HCT-15 colon = test system: HCT-15 colon
HL-60(TB) leukemia = test system: HL-60(TB) leukemia
HOP-62 NSCLC = test system: HOP-62 NSCLC
HOP-92 NSCLC = test system: HOP-92 NSCLC
HS 578T breast = test system: HS 578T breast
HT29 colon = test system: HT29 colon
IGROV1 ovarian = test system: IGROV1 ovarian
K-562 leukemia = test system: K-562 leukemia
KM12 colon = test system: KM12 colon
LOX IMVI melanoma = test system: LOX IMVI melanoma
M14 melanoma = test system: M14 melanoma
MALME-3M melanoma = test system: MALME-3M melanoma
MCF7 breast = test system: MCF7 breast
MDA-MB-231 breast = test system: MDA-MB-231 breast
MDA-MB-435 = test system: MDA-MB-435
MDA-N = test system: MDA-N
MOLT-4 leukemia = test system: MOLT-4 leukemia
NCI-H226 lung = test system: NCI-H226 lung
NCI-H23 lung = test system: NCI-H23 lung
NCI-H460 lung = test system: NCI-H460 lung
NCI-H522 lung = test system: NCI-H522 lung
NCI/ADR-RES ovarian = test system: NCI/ADR-RES ovarian
OVCAR-3 ovarian = test system: OVCAR-3 ovarian
OVCAR-4 ovarian = test system: OVCAR-4 ovarian
OVCAR-5 ovarian = test system: OVCAR-5 ovarian
OVCAR-8 ovarian = test system: OVCAR-8 ovarian
PC-3 prostate = test system: PC-3 prostate
RPMI-8226 leukemia = test system: RPMI-8226 leukemia
RXF 393 renal = test system: RXF 393 renal
SF-268 CNS = test system: SF-268 CNS
SF-295 CNS = test system: SF-295 CNS
SF-539 CNS = test system: SF-539 CNS
SK-MEL-2 melanoma = test system: SK-MEL-2 melanoma
SK-MEL-28 melanoma = test system: SK-MEL-28 melanoma
SK-MEL-5 melanoma = test system: SK-MEL-5 melanoma
SK-OV-3 ovarian = test system: SK-OV-3 ovarian
SN12C renal = test system: SN12C renal
SNB-19 CNS = test system: SNB-19 CNS
SNB-75 CNS = test system: SNB-75 CNS
SR leukemia = test system: SR leukemia
SW-620 colon = test system: SW-620 colon
T-47D breast = test system: T-47D breast
TK-10 renal = test system: TK-10 renal
U251 CNS = test system: U251 CNS
UACC-257 melanoma = test system: UACC-257 melanoma
UACC-62 melanoma = test system: UACC-62 melanoma
UO-31 renal = test system: UO-31 renal

## NC(C(=O)O)c1cc(=O)[nH]o1 (stereo not drawn)
786-0 renal
  TGI: > 100 µM
A498 renal
  TGI: > 100 µM
A549 NSCLC
  TGI: > 100 µM
ACHN renal
  TGI: > 100 µM
BT-549 breast
  TGI: > 69.9 µM
CAKI-1 renal
  TGI: > 100 µM
CCRF-CEM leukemia
  TGI: > 100 µM
COLO 205 colon
  TGI: > 100 µM
DU-145 prostate
  TGI: > 100 µM
EKVX NSCLC
  TGI: > 100 µM
HCC-2998 colon
  TGI: > 100 µM
HCT-116 colon
  TGI: > 100 µM
HCT-15 colon
  TGI: > 100 µM
HL-60(TB) leukemia
  TGI: > 100 µM
HOP-62 NSCLC
  TGI: > 100 µM
HOP-92 NSCLC
  TGI: > 100 µM
HS 578T breast
  TGI: > 100 µM
HT29 colon
  TGI: > 100 µM
IGROV1 ovarian
  TGI: > 100 µM
K-562 leukemia
  TGI: > 100 µM
KM12 colon
  TGI: > 100 µM
LOX IMVI melanoma
  TGI: > 100 µM
M14 melanoma
  TGI: > 100 µM
MALME-3M melanoma
  TGI: > 100 µM
MCF7 breast
  TGI: > 100 µM
MDA-MB-231 breast
  TGI: > 100 µM
MDA-MB-435
  TGI: > 100 µM
MDA-N
  TGI: > 100 µM
MOLT-4 leukemia
  TGI: > 100 µM
NCI-H226 lung
  TGI: > 100 µM
NCI-H23 lung
  TGI: > 100 µM
NCI-H460 lung
  TGI: > 100 µM
NCI-H522 lung
  TGI: > 100 µM
NCI/ADR-RES ovarian
  TGI: > 100 µM
OVCAR-3 ovarian
  TGI: > 100 µM
OVCAR-4 ovarian
  TGI: > 100 µM
OVCAR-5 ovarian
  TGI: > 100 µM
OVCAR-8 ovarian
  TGI: > 100 µM
PC-3 prostate
  TGI: > 100 µM
RPMI-8226 leukemia
  TGI: > 100 µM
RXF 393 renal
  TGI: > 100 µM
SF-268 CNS
  TGI: > 100 µM
SF-295 CNS
  TGI: > 100 µM
SF-539 CNS
  TGI: > 100 µM
SK-MEL-2 melanoma
  TGI: > 100 µM
SK-MEL-28 melanoma
  TGI: > 100 µM
SK-MEL-5 melanoma
  TGI: > 100 µM
SK-OV-3 ovarian
  TGI: > 100 µM
SN12C renal
  TGI: > 100 µM
SNB-19 CNS
  TGI: > 100 µM
SNB-75 CNS
  TGI: > 100 µM
SR leukemia
  TGI: > 100 µM
SW-620 colon
  TGI: > 100 µM
T-47D breast
  TGI: > 100 µM
TK-10 renal
  TGI: > 100 µM
U251 CNS
  TGI: > 100 µM
UACC-257 melanoma
  TGI: > 100 µM
UACC-62 melanoma
  TGI: > 100 µM
UO-31 renal
  TGI: > 100 µM

## C=C1CCC(O)C/C1=C/C=C1\CCCC2(C)C1CCC2C(C)CCCC(C)C (stereo not drawn)
786-0 renal
  TGI: 30.6 µM
A498 renal
  TGI: 36.7 µM
A549 NSCLC
  TGI: 36.3 µM
ACHN renal
  TGI: 30.6 µM
BT-549 breast
  TGI: 37.4 µM
CAKI-1 renal
  TGI: 35.2 µM
CCRF-CEM leukemia
  TGI: > 65.4 µM
COLO 205 colon
  TGI: 34 µM
DU-145 prostate
  TGI: 41.3 µM
EKVX NSCLC
  TGI: 35.4 µM
HCC-2998 colon
  TGI: 38.6 µM
HCT-116 colon
  TGI: 28.5 µM
HCT-15 colon
  TGI: 35.3 µM
HL-60(TB) leukemia
  TGI: > 60.2 µM
HOP-62 NSCLC
  TGI: 35.4 µM
HOP-92 NSCLC
  TGI: 33 µM
HS 578T breast
  TGI: 36.4 µM
HT29 colon
  TGI: 29.9 µM
IGROV1 ovarian
  TGI: 31.3 µM
K-562 leukemia
  TGI: > 59.2 µM
KM12 colon
  TGI: 38 µM
LOX IMVI melanoma
  TGI: 34.5 µM
M14 melanoma
  TGI: 34.8 µM
MALME-3M melanoma
  TGI: 38 µM
MCF7 breast
  TGI: 29.3 µM
MDA-MB-231 breast
  TGI: 35.6 µM
MDA-MB-435
  TGI: 31.3 µM
MDA-N
  TGI: 34.3 µM
MOLT-4 leukemia
  TGI: > 61.5 µM
NCI-H226 lung
  TGI: 31.3 µM
NCI-H23 lung
  TGI: 33.7 µM
NCI-H460 lung
  TGI: 46.7 µM
NCI-H522 lung
  TGI: 33 µM
NCI/ADR-RES ovarian
  TGI: 34.9 µM
OVCAR-3 ovarian
  TGI: 35.4 µM
OVCAR-4 ovarian
  TGI: 35.7 µM
OVCAR-5 ovarian
  TGI: 37.4 µM
OVCAR-8 ovarian
  TGI: 33.2 µM
PC-3 prostate
  TGI: 34.3 µM
RPMI-8226 leukemia
  TGI: 64.9 µM
RXF 393 renal
  TGI: 33.4 µM
SF-268 CNS
  TGI: 46.5 µM
SF-295 CNS
  TGI: 35.1 µM
SF-539 CNS
  TGI: 36.5 µM
SK-MEL-2 melanoma
  TGI: 37.2 µM
SK-MEL-28 melanoma
  TGI: 30.4 µM
SK-MEL-5 melanoma
  TGI: 36.3 µM
SK-OV-3 ovarian
  TGI: 41.9 µM
SN12C renal
  TGI: 30.8 µM
SNB-19 CNS
  TGI: 33.2 µM
SNB-75 CNS
  TGI: 37.6 µM
SR leukemia
  TGI: > 63.6 µM
SW-620 colon
  TGI: 31.8 µM
T-47D breast
  TGI: 38.8 µM
TK-10 renal
  TGI: 25.1 µM
U251 CNS
  TGI: 34.4 µM
UACC-257 melanoma
  TGI: 32.2 µM
UACC-62 melanoma
  TGI: 34.9 µM
UO-31 renal
  TGI: 28.3 µM
